From ChEMBL document CHEMBL1201862, “PubChem BioAssay data set” (2004)
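Dose response: 5 concentrations. Exposure: 48 h. Format: 96-well plates. Endpoint: linear interpolation; highest concentration if not reached. GI50 is the concentration that inhibits growth by half.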 Activity calls are given as the source filed them. Cut-off read from the data, not from the text of the source: active = GI50 up to about 1.1 µM and inactive = higher.

Legend:
Assay in all cases: NCI-60 cell line screen, 48 h
EKVX = test system: EKVX
HCT-116 = test system: HCT-116
HT-29 = test system: HT-29
MOLT-4 = test system: MOLT-4
Malme-3M = test system: Malme-3M
NCI-H226 = test system: NCI-H226
OVCAR-4 = test system: OVCAR-4
OVCAR-8 = test system: OVCAR-8
SF-268 = test system: SF-268
SF-295 = test system: SF-295
SK-MEL-28 = test system: SK-MEL-28
SK-OV-3 = test system: SK-OV-3
SNB-75 = test system: SNB-75
SW-620 = test system: SW-620
UACC-62 = test system: UACC-62

Measured: GI50

CC(C)(C)N/N=C(\C(=O)Nc1nnc(S)[nH]1)C1C(=O)Nc2ccccc2[S+]1[O-] (stereo not given)
inactive: EKVX > 100 µM | HCT-116 > 100 µM | HT-29 > 100 µM | MOLT-4 > 100 µM | Malme-3M > 100 µM | NCI-H226 > 100 µM | OVCAR-4 > 100 µM | OVCAR-8 > 100 µM | SF-268 > 100 µM | SF-295 > 100 µM | SK-MEL-28 > 100 µM | SK-OV-3 > 100 µM | SNB-75 > 100 µM | SW-620 > 100 µM | UACC-62 > 100 µM

COc1ccc(C2C(Cl)C(=O)N2NC(=O)c2ccc(NC(C)=O)cc2)cc1 (stereo not given)
inactive: EKVX > 100 µM | HCT-116 > 100 µM | HT-29 > 100 µM | MOLT-4 > 100 µM | Malme-3M > 100 µM | NCI-H226 > 100 µM | OVCAR-4 > 100 µM | OVCAR-8 > 100 µM | SF-268 > 100 µM | SF-295 > 100 µM | SK-MEL-28 > 100 µM | SK-OV-3 > 100 µM | SNB-75 > 100 µM | SW-620 > 100 µM | UACC-62 > 100 µM

COC(=O)[C@H]1COC(=S)N1C(=O)[C@@H](C)[C@H](O)C(C)C
inactive: EKVX > 100 µM | HCT-116 > 100 µM | HT-29 > 100 µM | MOLT-4 > 100 µM | Malme-3M > 100 µM | NCI-H226 12.8 µM | OVCAR-4 > 100 µM | OVCAR-8 > 100 µM | SF-268 > 100 µM | SF-295 > 100 µM | SK-MEL-28 > 100 µM | SK-OV-3 > 100 µM | SNB-75 42 µM | SW-620 > 100 µM | UACC-62 > 100 µM

COc1ccc2c(c1)CN1CCc3c(cc(OC)c(OC)c3OC)C1C2 (stereo not given)
inactive: EKVX > 100 µM | HCT-116 > 100 µM | HT-29 68.5 µM | MOLT-4 63 µM | Malme-3M > 100 µM | NCI-H226 > 100 µM | OVCAR-4 > 100 µM | OVCAR-8 > 100 µM | SF-268 > 100 µM | SF-295 > 100 µM | SK-MEL-28 47.6 µM | SK-OV-3 > 100 µM | SNB-75 > 100 µM | SW-620 > 100 µM | UACC-62 74.1 µM

C[C@]12CCc3nonc3C1CC[C@@H]1C2CC[C@]2(C)NC(=O)CCC12 (stereo not given in full)
inactive: EKVX > 100 µM | HCT-116 > 100 µM | HT-29 > 100 µM | MOLT-4 > 100 µM | Malme-3M > 100 µM | NCI-H226 > 100 µM | OVCAR-4 > 100 µM | OVCAR-8 > 100 µM | SF-268 > 100 µM | SF-295 > 100 µM | SK-MEL-28 > 100 µM | SK-OV-3 > 100 µM | SNB-75 > 100 µM | SW-620 > 100 µM | UACC-62 > 100 µM
